Type in all cases: cell-based
In one assay the target is T1, hPPARα (LBD) (Homo sapiens, UniProt Q07869).
T1 construct: The receptor expression plasmid (pSG5-GAL4-hPPARα or γ or δ (LBD)); GAL4 (fusion partner); expressed in transfected cells; host or cells: CV-1 cells (ATCC)
T1 sequence (Q07869 239-466 limits assumed): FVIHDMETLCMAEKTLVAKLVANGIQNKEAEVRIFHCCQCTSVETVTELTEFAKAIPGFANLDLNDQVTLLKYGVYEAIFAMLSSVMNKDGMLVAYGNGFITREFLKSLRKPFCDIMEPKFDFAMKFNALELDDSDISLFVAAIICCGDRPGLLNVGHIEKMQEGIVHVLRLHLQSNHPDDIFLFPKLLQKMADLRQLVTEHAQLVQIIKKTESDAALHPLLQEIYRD
Put plainly: GAL4-hPPARα (LBD) luciferase reporter transactivation in CV-1 cells. The note with it: about 40 hours, relative to GW-590735 as 100%, read-out: PPAR activities EC50 PPARα. The method, then: (§1) The PPARδ activation effect of the compounds of the present invention was determined as follows (measurement of the PPAR activation effect of the test compounds (compounds in the examples)).
(§2) The receptor expression plasmid (pSG5-GAL4-hPPARα or γ or δ (LBD)), luciferase expression plasmid (pUC8-MH100×4-TK-Luc) and β-galactosidase expression plasmid (pCMX-β-GAL) (Kliewer, S. A. et. al., (1992) Nature, 358:771-774) were introduced into CV-1 cells (ATCC).
(§3) After gene introduction using the lipofection reagent DMRIE-C or Lipofectamin 2000 (Invitrogen), the cells were cultured in the presence of the test compound for 42 hours. Lysed cells were tested for luciferase activity and β-GAL activity.
(§4) The following methods were used to determine the PPAR activation effect of the tested compounds (compounds in the examples)
(§5) Receptor expression plasmid (pSG5-GAL4-hPPARα, 7 or 6 (LBD)), luciferase expression plasmid (pUC8-MH100×4-TK-Luc) and β-Galactosidase expression plasmid (pCMX-β-GAL) (Kilewer, S. A. et. al., (1992) Nature, 358: 771-774) were introduced into CV-1 cells (ATCC). After gene introduction using a lipofection reagent (Lipofectamine 2000 (Invitrogen)), the cells were cultured in the presence of the test compounds for about 40 hours.
Background: A reporter such as luciferase makes a cellular process visible.

For another assay, the target named is T2, hPPARγ (LBD) (Homo sapiens, UniProt P37231).
T2 construct: The receptor expression plasmid (pSG5-GAL4-hPPARα or γ or δ (LBD)); GAL4 (fusion partner); expressed in transfected cells; host or cells: CV-1 cells (ATCC)
T2 sequence (P37231 238-503 limits assumed): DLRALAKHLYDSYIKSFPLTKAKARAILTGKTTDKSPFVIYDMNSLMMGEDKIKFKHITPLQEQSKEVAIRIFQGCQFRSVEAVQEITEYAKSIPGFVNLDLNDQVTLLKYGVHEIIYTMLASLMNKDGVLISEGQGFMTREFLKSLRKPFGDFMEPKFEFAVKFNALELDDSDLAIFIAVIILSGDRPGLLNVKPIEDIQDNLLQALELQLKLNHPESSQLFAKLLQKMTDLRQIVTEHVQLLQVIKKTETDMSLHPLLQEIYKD
The assay is described as follows: GAL4-hPPARγ (LBD) luciferase reporter transactivation in CV-1 cells. The following applies: about 40 hours, relative to Rosiglitazone as 100%, read-out: PPAR activities EC50 PPARγ. The method, then:
as §1, §2, §3, §4, §5

Another assay has as its target T3, hPPARδ (LBD) (Homo sapiens, UniProt Q03181).
T3 construct: The receptor expression plasmid (pSG5-GAL4-hPPARα or γ or δ (LBD)); GAL4 (fusion partner); expressed in transfected cells; host or cells: CV-1 cells (ATCC)
T3 sequence (Q03181 211-439 limits assumed): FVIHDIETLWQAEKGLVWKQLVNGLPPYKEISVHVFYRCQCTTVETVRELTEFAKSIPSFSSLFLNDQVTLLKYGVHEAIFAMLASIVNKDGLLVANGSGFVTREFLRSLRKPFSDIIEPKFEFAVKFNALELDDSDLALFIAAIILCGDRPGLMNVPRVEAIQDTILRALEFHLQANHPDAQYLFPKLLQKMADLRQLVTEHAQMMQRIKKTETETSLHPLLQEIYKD
The assay is described as follows: GAL4-hPPARδ (LBD) luciferase reporter transactivation in CV-1 cells. The note with it: about 40 hours, relative to GW-501516 as 100%, read-out: PPAR activities EC50 PPARδ. As for the experimental part: as §1, §2, §3, §4, §5

`CCc1cc(COc2ccccc2Cn2c(CCCN3CCCC3)nc3cc(Br)ccc32)ccc1CCC(=O)O` [Compound 17, 3-(4-((2-((5-Bromo-2-(3-(pyrrolidin-1-yl)propyl)-1H-benzo[d]imidazol-1-yl)methyl)-phenoxy)methyl)-2-ethylphenyl)propanoic acid]: the concentration giving a half-maximal response (EC50) on hPPARα (LBD) was determined as 3050 nM; on hPPARγ (LBD) it was 15400 nM; at hPPARδ (LBD), 41800 nM.

Regarding `CCc1cc(COc2ccccc2Cn2c(CN3CCCC3)nc3cc(Br)ccc32)ccc1CCC(=O)O` [Compound 14], the EC50 on hPPARα (LBD) worked out at 3420 nM; on hPPARγ (LBD) it was 672 nM; at hPPARδ (LBD), 142 nM.

`CCc1cc(COc2ccccc2Cn2c(CCc3ccc(Cl)cc3Cl)nc3cc(Br)ccc32)ccc1CCC(=O)O` [Compound 3, 3-(4-((2-((5-Bromo-2-(2.4-dichlorophenethyl)-1H-benzo[d]imidazol-1-yl)methyl)phenoxy)methyl)-2-ethylphenyl)propanoic acid]: the half-maximal effective concentration (EC50) on hPPARα (LBD) was 104 nM; on hPPARγ (LBD), 186 nM; on hPPARδ (LBD), 36.5 nM.

Regarding `CCc1cc(COc2ccccc2Cn2c(CN3CCCC3)nc3cc(Br)ccc32)ccc1OCC(=O)O` [Compound 50], the EC50 on hPPARα (LBD) worked out at 3990 nM; on hPPARγ (LBD), 2040 nM; at hPPARδ (LBD), 803 nM.

As to `CCc1cc(COc2ccccc2Cn2c(CCCN3CCCC3)nc3cc(Br)ccc32)ccc1OCC(=O)O` [Compound 15, 2-(4-((2-((5-Bromo-2-(3-(pyrrolidin-1-yl)propyl)-1H-benzo[d]imidazol-1-yl)methyl)phenoxy)methyl)-2-ethylphenoxy)acetic acid], the EC50 on hPPARα (LBD) was 2110 nM; at hPPARγ (LBD), 9110 nM; on hPPARδ (LBD), 6560 nM.

In general, EC50 refers to the concentration giving half of the maximal effect.

The values are drawn from patent US12522569B2, “Substituted benzimidazole derivative and use thereof” (Chengdu FANXI Biopharma Co., Ltd., priority 2020, dated 2026).
